# The source made the active and inactive calls. The calls are words filed in the database; no cut-off is given here.
# Experiments:
# [1] = biological target: T1, Cyclin-dependent kinase 7 (Homo sapiens, UniProt P50613); assay: Irreversible inhibition of CDK7 (unknown origin) assessed as activity measured after 3 hrs by jump dilution method
# [2] = biological target: PI3-kinase p110-delta/p85-alpha (Homo sapiens) (UniProt P27986+O00329); assay: Inhibition of PI3 Kinase p110delta/p85alpha (unknown origin) at 1 uM relative to control; format: protein-complex assay
# [3] = biological target: SRSF protein kinase 1 (Homo sapiens) (UniProt Q96SB4); assay: Inhibition of human full length wild type SRPK1 expressed in mammalian system at 1 uM by KINOMEscan analysis relative to control
# [4] = Observed volume of distribution at steady state in ICR mouse at 5 mg/kg, iv single dose measured upto 24 hrs; format: ADME, organism-based; conditions: in vivo, read-out: Vdss
# [5] = AUClast in ICR mouse at 5 mg/kg, sc single dose measured upto 24 hrs; format: ADME, organism-based; design: time < 24 hrs, dose 5 mg/kg, route sc; conditions: in vivo
# [6] = biological target: T1, Cyclin-dependent kinase 7; assay: Inhibition of CDK7 (unknown origin)
# [7] = biological target: Serine/threonine-protein kinase pim-1 (Homo sapiens) (UniProt P11309); assay: Inhibition of human partial length wild type Pim-1 (M1/E291) expressed in bacterial system at 1 uM by KINOMEscan analysis relative to control
# [8] = biological target: RAC-alpha serine/threonine-protein kinase (Homo sapiens) (UniProt P31749); assay: Inhibition of PKBalpha (unknown origin) at 1 uM relative to control
# [9] = biological target: PI3-kinase p110-alpha/p85-alpha (Homo sapiens) (UniProt P27986+P42336); assay: Inhibition of PI3 kinase p110alpha/p85alpha (unknown origin) at 1 uM relative to control; format: protein-complex assay
# [10] = Toxicity in wild type mouse assessed as body weight at 5 mg/kg; format: organism-based; conditions: in vivo
# Mus musculus [11] = species on record: Mus musculus; assay: Suppression of cyst formation in C57BL/6 mouse embryonic kidney cyst model at 1 to 3 uM measured for 4 to 12 […]; format: functional, organism-based; conditions: dose 1-3 µM, time 4-12 hrs
# [12] = Bioavailability in ICR mouse at 5 mg/kg, sc single dose measured upto 24 hrs; format: ADME, organism-based; conditions: in vivo
# [13] = biological target: Interleukin-1 receptor-associated kinase 4 (Homo sapiens) (UniProt Q9NWZ3); assay: Inhibition of human partial length wild type IRAK4 expressed in mammalian system at 1 uM by KINOMEscan analysis relative to control
# [14] = biological target: Dual specificity mitogen-activated protein kinase kinase 1 (Homo sapiens) (UniProt Q02750); assay: Inhibition of human full length wild type MEK1 expressed in mammalian system at 1 uM by KINOMEscan analysis relative to control
# [15] = Observed AUC (infinitive) in ICR mouse at 5 mg/kg, sc single dose measured upto 24 hrs; format: ADME, organism-based; design: time < 24 hrs, dose 5 mg/kg, route sc; conditions: in vivo
# [16] = biological target: Cyclin-dependent kinase 5 (Homo sapiens, UniProt Q00535); assay: Inhibition of CDK5 (unknown origin)
# Mus musculus [17] = assay: Reduction in kidney size in kidney-specific Pkd1 knockout ADPKD mouse model assessed as renal cystic index at 5 mg/kg by HE staining analysis (reference value: 23 +/- 1.3%); format: functional, organism-based
# T1 sequence (P50613 whole entry): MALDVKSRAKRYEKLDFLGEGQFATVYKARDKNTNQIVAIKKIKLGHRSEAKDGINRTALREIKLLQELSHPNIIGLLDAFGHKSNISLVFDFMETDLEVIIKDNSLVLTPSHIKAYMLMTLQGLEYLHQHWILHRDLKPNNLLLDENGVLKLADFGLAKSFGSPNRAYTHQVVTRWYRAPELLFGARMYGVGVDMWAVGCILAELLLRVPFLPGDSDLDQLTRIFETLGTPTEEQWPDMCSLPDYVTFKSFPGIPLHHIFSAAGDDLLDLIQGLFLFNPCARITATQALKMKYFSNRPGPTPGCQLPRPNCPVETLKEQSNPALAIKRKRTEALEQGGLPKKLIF
# Cyclin-dependent kinase 5, sequence (Q00535 whole entry): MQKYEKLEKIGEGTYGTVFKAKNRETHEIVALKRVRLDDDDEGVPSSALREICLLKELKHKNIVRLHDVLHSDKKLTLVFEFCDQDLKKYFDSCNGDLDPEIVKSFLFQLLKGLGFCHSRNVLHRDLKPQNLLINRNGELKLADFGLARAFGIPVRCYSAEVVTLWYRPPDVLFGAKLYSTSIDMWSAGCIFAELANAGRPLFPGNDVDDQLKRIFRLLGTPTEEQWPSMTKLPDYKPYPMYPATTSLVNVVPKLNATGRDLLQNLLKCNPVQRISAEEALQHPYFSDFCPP
# SRSF protein kinase 1 (Homo sapiens), sequence (Q96SB4 whole entry): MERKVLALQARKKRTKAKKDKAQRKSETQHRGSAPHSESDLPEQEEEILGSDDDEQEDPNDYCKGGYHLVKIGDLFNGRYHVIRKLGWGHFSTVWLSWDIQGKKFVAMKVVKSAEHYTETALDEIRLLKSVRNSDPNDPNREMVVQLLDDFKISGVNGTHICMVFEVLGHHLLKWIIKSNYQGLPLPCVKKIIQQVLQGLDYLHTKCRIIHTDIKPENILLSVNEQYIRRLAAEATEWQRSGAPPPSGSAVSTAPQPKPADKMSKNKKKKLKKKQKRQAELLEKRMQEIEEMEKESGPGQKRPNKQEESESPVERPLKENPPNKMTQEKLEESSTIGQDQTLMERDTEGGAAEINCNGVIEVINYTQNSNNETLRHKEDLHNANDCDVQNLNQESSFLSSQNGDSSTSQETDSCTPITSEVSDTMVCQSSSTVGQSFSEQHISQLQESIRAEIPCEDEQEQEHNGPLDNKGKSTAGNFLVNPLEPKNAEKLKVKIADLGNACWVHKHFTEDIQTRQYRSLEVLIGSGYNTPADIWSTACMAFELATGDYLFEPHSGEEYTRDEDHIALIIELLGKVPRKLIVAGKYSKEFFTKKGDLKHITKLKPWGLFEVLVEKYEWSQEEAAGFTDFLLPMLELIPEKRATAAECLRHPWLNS
# Serine/threonine-protein kinase pim-1 (Homo sapiens), sequence (P11309 whole entry, looked up): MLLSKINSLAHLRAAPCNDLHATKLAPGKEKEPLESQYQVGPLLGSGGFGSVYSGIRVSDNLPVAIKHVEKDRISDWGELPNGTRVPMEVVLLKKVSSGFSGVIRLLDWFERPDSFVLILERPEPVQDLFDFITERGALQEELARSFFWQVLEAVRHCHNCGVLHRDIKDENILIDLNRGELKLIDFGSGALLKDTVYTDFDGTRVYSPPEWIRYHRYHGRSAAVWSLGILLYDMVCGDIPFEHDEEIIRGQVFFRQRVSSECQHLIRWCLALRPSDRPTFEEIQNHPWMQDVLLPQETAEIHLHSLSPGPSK
# RAC-alpha serine/threonine-protein kinase (Homo sapiens), sequence (P31749 whole entry): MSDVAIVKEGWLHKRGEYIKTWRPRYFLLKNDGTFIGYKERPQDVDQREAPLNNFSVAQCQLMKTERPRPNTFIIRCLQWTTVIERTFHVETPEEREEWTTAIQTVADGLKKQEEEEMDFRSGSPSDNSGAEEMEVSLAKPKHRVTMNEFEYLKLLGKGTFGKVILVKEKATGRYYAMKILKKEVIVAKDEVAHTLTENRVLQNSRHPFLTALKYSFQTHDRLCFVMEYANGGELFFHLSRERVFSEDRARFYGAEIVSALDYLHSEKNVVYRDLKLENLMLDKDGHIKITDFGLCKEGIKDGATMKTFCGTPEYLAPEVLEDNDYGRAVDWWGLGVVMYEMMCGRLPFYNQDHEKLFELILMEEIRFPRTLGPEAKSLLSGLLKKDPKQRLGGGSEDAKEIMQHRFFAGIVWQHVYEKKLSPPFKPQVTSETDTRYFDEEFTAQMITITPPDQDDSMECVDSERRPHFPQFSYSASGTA
# Interleukin-1 receptor-associated kinase 4 (Homo sapiens), sequence (Q9NWZ3 whole entry): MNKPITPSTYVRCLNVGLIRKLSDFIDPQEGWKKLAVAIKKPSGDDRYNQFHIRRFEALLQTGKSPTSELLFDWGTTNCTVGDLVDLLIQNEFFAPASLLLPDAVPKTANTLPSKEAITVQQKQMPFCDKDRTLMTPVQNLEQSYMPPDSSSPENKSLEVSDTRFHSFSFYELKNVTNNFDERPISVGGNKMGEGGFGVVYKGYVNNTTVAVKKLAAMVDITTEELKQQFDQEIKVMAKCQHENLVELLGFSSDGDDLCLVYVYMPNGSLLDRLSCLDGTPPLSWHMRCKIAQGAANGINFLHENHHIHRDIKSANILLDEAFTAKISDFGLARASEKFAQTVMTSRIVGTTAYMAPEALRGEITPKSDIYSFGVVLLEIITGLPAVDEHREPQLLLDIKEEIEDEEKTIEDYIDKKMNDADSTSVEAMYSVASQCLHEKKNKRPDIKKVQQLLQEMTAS
# Dual specificity mitogen-activated protein kinase kinase 1 (Homo sapiens), sequence (Q02750 whole entry): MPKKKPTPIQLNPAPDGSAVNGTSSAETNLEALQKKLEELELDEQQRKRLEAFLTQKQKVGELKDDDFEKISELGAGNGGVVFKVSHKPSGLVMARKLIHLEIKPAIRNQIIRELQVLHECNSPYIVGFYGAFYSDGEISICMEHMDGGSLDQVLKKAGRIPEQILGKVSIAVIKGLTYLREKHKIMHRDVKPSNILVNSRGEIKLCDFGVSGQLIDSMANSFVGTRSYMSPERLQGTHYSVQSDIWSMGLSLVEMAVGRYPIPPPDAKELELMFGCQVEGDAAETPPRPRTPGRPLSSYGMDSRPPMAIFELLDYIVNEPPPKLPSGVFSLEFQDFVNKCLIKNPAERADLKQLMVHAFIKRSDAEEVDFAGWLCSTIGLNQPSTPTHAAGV
structure (smiles),measurement,setting,value
C=CC(=O)Nc1ccc(C(=O)Nc2n[nH]c3ccc(-c4cncc(NC[C@@H](O)c5ccccc5)c4)cc23)cc1,inhibition,[1],Active
same,inhibition,[2],< 50%
same,inhibition,[3],< 50%
same,Vd,[4],1.28 L/kg
same,AUC(0-t) at 24 h,[5],17300 ng·h/mL
same,IC50,[6],4 nM
same,inhibition,[7],57%
same,inhibition,[8],< 50%
same,inhibition,[9],< 50%
same,Activity,[10],Non-Toxic
same,inhibition,Mus musculus [11],Dose-Dependent Effect
same,bioavailability,[12],64.2%
same,inhibition,[13],< 50%
same,inhibition,[14],< 50%
same,AUC(0-inf),[15],17400 ng·h/mL
same,IC50,[16],> 10000 nM
same,Activity,Mus musculus [17],Active

# Source: ChEMBL document CHEMBL5236590, “Discovery of Novel N-(5-(Pyridin-3-yl)-1H-indazol-3-yl)benzamide Derivatives as Potent Cyclin-Dependent Kinase 7 Inhibitors for the Treatment of Autosomal Dominant Polycystic Kidney Disease” (J Med Chem, 2022)
